Test results published in ChEMBL document CHEMBL3431459, “Roche carnitine palmitoyltransferase modulator screening data (supplementary data associated with the publication CHEMBL2216752)”.
pIC50: −log10 of the molar value. In brackets after ≈: the same amount, converted by molar mass.

How the values were obtained:
[1] = molecular target: T1, Carnitine O-palmitoyltransferase 1, liver isoform (Rattus norvegicus, UniProt P32198); test: (§1) SUPPLEMENTARY: Inhibition of Carnitine palmitoyltransferase 1, liver isoform
T1 sequence (P32198 whole entry): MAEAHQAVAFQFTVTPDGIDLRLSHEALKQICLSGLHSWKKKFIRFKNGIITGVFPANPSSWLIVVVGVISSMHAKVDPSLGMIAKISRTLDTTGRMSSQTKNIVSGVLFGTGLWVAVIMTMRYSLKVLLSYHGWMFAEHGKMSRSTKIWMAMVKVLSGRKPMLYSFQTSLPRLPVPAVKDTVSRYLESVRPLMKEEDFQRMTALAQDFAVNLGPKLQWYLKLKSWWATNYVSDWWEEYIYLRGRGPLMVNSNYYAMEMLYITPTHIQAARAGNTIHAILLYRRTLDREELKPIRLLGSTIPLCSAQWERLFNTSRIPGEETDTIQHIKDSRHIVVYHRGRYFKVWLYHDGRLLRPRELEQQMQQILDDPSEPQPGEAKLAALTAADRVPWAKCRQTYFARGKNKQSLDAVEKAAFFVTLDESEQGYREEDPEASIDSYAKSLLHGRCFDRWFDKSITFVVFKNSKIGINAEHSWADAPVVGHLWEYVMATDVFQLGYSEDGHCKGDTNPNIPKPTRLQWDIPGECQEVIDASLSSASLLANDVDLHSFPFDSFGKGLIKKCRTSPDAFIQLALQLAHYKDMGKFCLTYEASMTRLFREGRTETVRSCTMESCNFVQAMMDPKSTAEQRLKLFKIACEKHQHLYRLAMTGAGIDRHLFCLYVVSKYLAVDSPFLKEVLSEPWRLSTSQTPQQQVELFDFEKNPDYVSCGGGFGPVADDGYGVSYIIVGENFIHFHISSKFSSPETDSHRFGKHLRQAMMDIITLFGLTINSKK

[2] = molecular target: T2, Carnitine O-palmitoyltransferase 1, liver isoform (Homo sapiens, UniProt P50416); test: as §1
T2 sequence (P50416 whole entry): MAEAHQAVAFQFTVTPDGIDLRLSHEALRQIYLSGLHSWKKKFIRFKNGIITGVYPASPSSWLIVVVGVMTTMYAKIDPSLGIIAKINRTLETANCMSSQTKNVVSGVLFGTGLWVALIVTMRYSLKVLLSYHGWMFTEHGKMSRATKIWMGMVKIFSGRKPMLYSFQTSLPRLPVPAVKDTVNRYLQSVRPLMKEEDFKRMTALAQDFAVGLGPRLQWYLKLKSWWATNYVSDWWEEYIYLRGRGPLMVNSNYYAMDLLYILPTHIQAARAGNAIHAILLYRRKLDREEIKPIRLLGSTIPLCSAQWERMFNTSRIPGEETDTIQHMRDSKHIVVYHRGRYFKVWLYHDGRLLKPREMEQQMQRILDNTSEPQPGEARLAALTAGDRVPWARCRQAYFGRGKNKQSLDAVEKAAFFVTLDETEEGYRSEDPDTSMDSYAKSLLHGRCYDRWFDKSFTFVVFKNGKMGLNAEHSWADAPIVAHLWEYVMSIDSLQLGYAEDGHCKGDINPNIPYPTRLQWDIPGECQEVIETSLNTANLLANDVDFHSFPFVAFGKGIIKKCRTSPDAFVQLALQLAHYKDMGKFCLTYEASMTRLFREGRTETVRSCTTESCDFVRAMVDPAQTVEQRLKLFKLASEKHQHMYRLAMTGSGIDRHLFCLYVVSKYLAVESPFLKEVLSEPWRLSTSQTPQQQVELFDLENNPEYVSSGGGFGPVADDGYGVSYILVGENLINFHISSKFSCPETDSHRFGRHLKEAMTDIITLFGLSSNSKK

[3] = SUPPLEMENTARY: Lyophilisation Solubility Assay (LYSA); type: physicochemical; conditions: read-out: Kinetic_solubility
[4] = molecular target: T3, Carnitine O-palmitoyltransferase 1, muscle isoform (Homo sapiens, UniProt Q92523); test: SUPPLEMENTARY: Inhibition of Carnitine palmitoyltransferase 1, muscle isoform; design: species or system Muscle tissue
T3 sequence (Q92523 whole entry): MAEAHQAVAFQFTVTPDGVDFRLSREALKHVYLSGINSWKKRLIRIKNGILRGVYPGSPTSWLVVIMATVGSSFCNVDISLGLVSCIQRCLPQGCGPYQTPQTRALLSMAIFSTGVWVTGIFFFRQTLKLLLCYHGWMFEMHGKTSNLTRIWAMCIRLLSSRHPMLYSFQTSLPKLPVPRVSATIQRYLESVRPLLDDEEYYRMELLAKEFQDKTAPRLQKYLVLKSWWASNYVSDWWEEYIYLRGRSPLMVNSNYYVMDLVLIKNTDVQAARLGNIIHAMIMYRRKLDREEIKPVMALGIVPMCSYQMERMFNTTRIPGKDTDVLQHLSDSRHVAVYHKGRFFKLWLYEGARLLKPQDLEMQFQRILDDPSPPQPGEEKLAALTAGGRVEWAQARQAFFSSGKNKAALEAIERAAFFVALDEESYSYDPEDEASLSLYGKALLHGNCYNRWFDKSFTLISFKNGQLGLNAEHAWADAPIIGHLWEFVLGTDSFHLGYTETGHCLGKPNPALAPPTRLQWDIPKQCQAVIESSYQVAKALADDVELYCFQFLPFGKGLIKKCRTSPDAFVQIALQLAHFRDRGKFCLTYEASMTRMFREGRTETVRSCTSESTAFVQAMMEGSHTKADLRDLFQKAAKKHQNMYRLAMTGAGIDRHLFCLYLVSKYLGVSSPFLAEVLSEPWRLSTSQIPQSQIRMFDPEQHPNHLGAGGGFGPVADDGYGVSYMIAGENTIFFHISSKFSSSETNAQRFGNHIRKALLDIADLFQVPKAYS

[5] = molecular target: T4, Carnitine O-palmitoyltransferase 2, mitochondrial (Rattus norvegicus, UniProt P18886); test: (§2) SUPPLEMENTARY: Inhibition of Carnitine palmitoyltransferase 2
T4 sequence (P18886 whole entry): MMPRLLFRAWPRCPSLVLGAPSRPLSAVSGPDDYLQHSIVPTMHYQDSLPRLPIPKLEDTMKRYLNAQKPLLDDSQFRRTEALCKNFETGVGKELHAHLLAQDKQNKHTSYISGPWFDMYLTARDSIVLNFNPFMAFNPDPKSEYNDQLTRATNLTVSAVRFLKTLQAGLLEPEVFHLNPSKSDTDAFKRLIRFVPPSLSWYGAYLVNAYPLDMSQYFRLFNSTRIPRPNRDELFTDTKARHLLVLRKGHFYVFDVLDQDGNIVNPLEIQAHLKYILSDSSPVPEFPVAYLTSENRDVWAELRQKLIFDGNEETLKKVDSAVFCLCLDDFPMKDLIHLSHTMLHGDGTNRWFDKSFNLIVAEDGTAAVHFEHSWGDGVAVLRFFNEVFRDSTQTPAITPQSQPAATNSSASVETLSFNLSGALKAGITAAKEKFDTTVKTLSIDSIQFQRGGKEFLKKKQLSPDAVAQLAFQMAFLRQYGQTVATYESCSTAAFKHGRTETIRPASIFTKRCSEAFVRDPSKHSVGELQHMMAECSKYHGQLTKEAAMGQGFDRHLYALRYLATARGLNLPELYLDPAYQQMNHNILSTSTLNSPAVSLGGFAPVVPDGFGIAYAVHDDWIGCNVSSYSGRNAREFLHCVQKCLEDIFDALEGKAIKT

[6] = molecular target: T5, Carnitine O-palmitoyltransferase 2, mitochondrial (Homo sapiens, UniProt P23786); test: as §2
T5 sequence (P23786 whole entry): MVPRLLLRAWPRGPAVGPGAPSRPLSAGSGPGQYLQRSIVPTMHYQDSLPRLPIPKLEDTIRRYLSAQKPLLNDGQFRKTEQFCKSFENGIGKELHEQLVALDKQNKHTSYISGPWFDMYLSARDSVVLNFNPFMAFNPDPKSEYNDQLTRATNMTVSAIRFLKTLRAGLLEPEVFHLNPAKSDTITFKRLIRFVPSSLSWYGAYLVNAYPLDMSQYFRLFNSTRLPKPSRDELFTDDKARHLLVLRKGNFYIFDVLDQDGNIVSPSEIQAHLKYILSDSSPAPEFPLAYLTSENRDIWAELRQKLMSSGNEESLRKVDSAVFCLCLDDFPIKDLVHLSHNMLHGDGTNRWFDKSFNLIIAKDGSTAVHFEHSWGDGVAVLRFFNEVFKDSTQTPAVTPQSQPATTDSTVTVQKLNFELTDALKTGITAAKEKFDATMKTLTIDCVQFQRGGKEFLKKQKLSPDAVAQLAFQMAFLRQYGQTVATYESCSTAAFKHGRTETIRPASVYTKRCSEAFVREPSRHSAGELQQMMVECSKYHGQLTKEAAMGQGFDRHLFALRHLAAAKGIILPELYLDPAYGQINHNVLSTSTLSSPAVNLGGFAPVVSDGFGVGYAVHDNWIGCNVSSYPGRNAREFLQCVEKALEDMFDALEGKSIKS

[7] = SUPPLEMENTARY: PAMPA permeability assay; type: physicochemical; conditions: read-out: Permeability

SMILES | pIC50 [1] | pIC50 [2] | solubility kinetic [3] | pIC50 [4] | pIC50 [5] | pIC50 [6] | Papp [7]
COc1ccc(Cl)cc1S(=O)(=O)N1CC(C)c2ccc(C(=O)Nc3ccc(C(=O)O)cc3)cc21 (centres undefined) | 7.68 | 7.21 | 0.012 mg/mL (≈ 24 µM) | 5.65 | 5.78 | 6.17 | 24 nm/s
COc1ccc(Cl)cc1S(=O)(=O)N1CCOc2c1cc(C(=O)Nc1ccc(C(=O)O)cc1)cc2C(F)(F)F | 6.81 | 7.11 | 0.103 mg/mL (≈ 180 µM) | < 4.00 | 5.28 | 5.64 | 26.5 nm/s
COc1ccc(Cl)cc1S(=O)(=O)c1c[nH]c2ccc(C(=O)Nc3ccccc3)cc12 | 7.08 | 6.94 | 0.001 mg/mL (≈ 2.27 µM) | < 4.00 | < 4.00 | < 4.00 | 0.6 nm/s
COc1ccc(Cl)cc1S(=O)(=O)c1cn(CC(N)=O)c2ccc(C(=O)Nc3ccccc3)cc12 | 7.77 | 7.89 | 0.002 mg/mL (≈ 4.02 µM) | < 4.00 | < 4.00 | < 4.00 | 3 nm/s
COc1ccc(Cl)cc1S(=O)(=O)N1CCOc2c(F)cc(C(=O)Nc3ccc(C(=O)O)cc3)cc21 | 7.34 | 7.11 | 0.005 mg/mL (≈ 9.6 µM) | < 4.00 | < 4.00 | 4.95 | 24.4 nm/s
COc1ccc(Cl)cc1S(=O)(=O)N1COc2c(F)cc(C(=O)Nc3ccc(C(=O)O)cc3)cc21 | 7.20 | 7.37 | 0.015 mg/mL (≈ 29.6 µM) | 4.75 | < 4.00 | 4.82 | 22 nm/s
Nc1cc(-c2noc([C@H]3CCCCN3C(=O)COc3ccccc3)n2)ccn1 | 6.60 | 6.97 | 0.106 mg/mL (≈ 279 µM) | < 4.00 | 4.45 | 4.71 | 53 nm/s
COc1ccc(Cl)cc1S(=O)(=O)N1COc2c(F)cc(C(=O)Nc3nc(CC(=O)O)cs3)cc21 | 7.28 | 7.51 | 0.309 mg/mL (≈ 585 µM) | 6.26 | < 4.00 | < 4.00 | 22.4 nm/s
COc1ccc(Cl)cc1S(=O)(=O)N1CCc2c(C)cc(C(=O)Nc3nc(CC(=O)O)cs3)cc21 | 7.92 | 7.71 | 0.249 mg/mL (≈ 477 µM) | < 4.00 | < 4.00 | < 4.00 | 20.3 nm/s
O=C(Nc1ccc(C(=O)O)c(F)c1)c1ccc2c(c1)N(S(=O)(=O)c1cc(Cl)cc(Cl)c1)CCC2 | 7.27 | 6.96 | 0.007 mg/mL (≈ 13.4 µM) | 4.71 | < 4.00 | < 4.00 | 48.2 nm/s
COc1ccc(Cl)cc1S(=O)(=O)N1CCOc2ccc(C(=O)Nc3ccc(CCC(=O)O)cc3)cc21 | 6.98 | 6.76 | 0.004 mg/mL (≈ 7.53 µM) | 6.03 | < 4.00 | < 4.00 | 33 nm/s
Cc1cc(C)cc(S(=O)(=O)c2nn(CC(=O)O)c3ccc(C(=O)Nc4ccccc4)cc23)c1 | 7.66 | 7.47 | 0.071 mg/mL (≈ 153 µM) | 5.05 | < 4.00 | < 4.00 | 0.1 nm/s
